{"source": "patent US20230374563A1", "about": "“Methods for Antimicrobial Susceptibility Testing” (MicrobeDX, Inc., priority 2017, published 2023)", "origin": "cited, not measured here", "tested_on": "bacteria", "conditions": "for CLSI MIC Cutoffs for (Urine) AST Determination I / MIC Criteria CLSI M100 (2018) I: Intermediate; for CLSI MIC Cutoffs for (Urine) AST Determination R / MIC Criteria CLSI M100 (2018) R: Resistant; for CLSI MIC Cutoffs for (Urine) AST Determination S / MIC Criteria CLSI M100 (2018) S: Susceptible; for MIC Criteria CLSI M100 (2018) S: cefazolin cutoffs for cases not identified as uncomplicated"}
{"compound": "NCC[C@H](O)C(=O)N[C@@H]1C[C@H](N)[C@@H](O[C@H]2O[C@H](CN)[C@@H](O)[C@H](O)[C@H]2O)[C@H](O)[C@H]1O[C@H]1O[C@H](CO)[C@@H](O)[C@H](N)[C@H]1O", "note": "[Amikacin]", "values": [{"measurement": "CLSI MIC Cutoffs for (Urine) AST Determination I", "result": 32, "unit": "µg/mL"}, {"measurement": "CLSI MIC Cutoffs for (Urine) AST Determination R", "result": "≥64", "unit": "µg/mL"}, {"measurement": "CLSI MIC Cutoffs for (Urine) AST Determination S", "result": "≤16", "unit": "µg/mL"}]}
{"compound": "CC1(C)S[C@@H]2[C@H](NC(=O)[C@H](N)c3ccccc3)C(=O)N2[C@H]1C(=O)O", "note": "[Ampicillin]", "values": [{"measurement": "MIC Criteria CLSI M100 (2018) I", "result": 16, "unit": "µg/mL"}, {"measurement": "MIC Criteria CLSI M100 (2018) R", "result": "≥32", "unit": "µg/mL"}, {"measurement": "MIC Criteria CLSI M100 (2018) S", "result": "≤8", "unit": "µg/mL"}, {"measurement": "CLSI MIC Cutoffs for (Urine) AST Determination I", "result": 16, "unit": "µg/mL"}, {"measurement": "CLSI MIC Cutoffs for (Urine) AST Determination R", "result": "≥32", "unit": "µg/mL"}, {"measurement": "CLSI MIC Cutoffs for (Urine) AST Determination S", "result": "<8", "unit": "µg/mL"}]}
{"compound": "CO/N=C(\\C(=O)N[C@@H]1C(=O)N2C(C(=O)O)=C(CSc3nc(=O)c(=O)[nH]n3C)CS[C@H]12)c1csc(N)n1", "note": "[Ceftriaxone]", "values": [{"measurement": "MIC Criteria CLSI M100 (2018) I", "result": 2, "unit": "µg/mL"}, {"measurement": "MIC Criteria CLSI M100 (2018) R", "result": "≥4", "unit": "µg/mL"}, {"measurement": "MIC Criteria CLSI M100 (2018) S", "result": "≤1", "unit": "µg/mL"}, {"measurement": "CLSI MIC Cutoffs for (Urine) AST Determination I", "result": 2, "unit": "µg/mL"}, {"measurement": "CLSI MIC Cutoffs for (Urine) AST Determination R", "result": "≥4", "unit": "µg/mL"}, {"measurement": "CLSI MIC Cutoffs for (Urine) AST Determination S", "result": "≤1", "unit": "µg/mL"}]}
{"compound": "C[C@@H](O)[C@H]1C(=O)N2C(C(=O)O)=C(S[C@@H]3CN[C@H](C(=O)Nc4cccc(C(=O)O)c4)C3)[C@H](C)[C@H]12", "note": "[Ertapenem]", "values": [{"measurement": "CLSI MIC Cutoffs for (Urine) AST Determination I", "result": 1, "unit": "µg/mL"}, {"measurement": "CLSI MIC Cutoffs for (Urine) AST Determination R", "result": "≥2", "unit": "µg/mL"}, {"measurement": "CLSI MIC Cutoffs for (Urine) AST Determination S", "result": "≤0.5", "unit": "µg/mL"}]}
{"compound": "C[C@@H]1O[C@@H]1P(=O)(O)O", "note": "[Fosfomycin]", "values": [{"measurement": "CLSI MIC Cutoffs for (Urine) AST Determination I", "result": 128, "unit": "µg/mL"}, {"measurement": "CLSI MIC Cutoffs for (Urine) AST Determination R", "result": "≥256", "unit": "µg/mL"}, {"measurement": "CLSI MIC Cutoffs for (Urine) AST Determination S", "result": "≤64", "unit": "µg/mL"}]}
{"compound": "C[C@@H](O)[C@H]1C(=O)N2C(C(=O)O)=C(S[C@@H]3CN[C@H](C(=O)N(C)C)C3)[C@H](C)[C@H]12", "note": "[Meropenem]", "values": [{"measurement": "CLSI MIC Cutoffs for (Urine) AST Determination I", "result": 2, "unit": "µg/mL"}, {"measurement": "CLSI MIC Cutoffs for (Urine) AST Determination R", "result": "≥4", "unit": "µg/mL"}, {"measurement": "CLSI MIC Cutoffs for (Urine) AST Determination S", "result": "≤1", "unit": "µg/mL"}]}
{"compound": "Amoxicillin/Clavulanate [Amox/Clav]", "values": [{"measurement": "CLSI MIC Cutoffs for (Urine) AST Determination I", "result": "16/8"}, {"measurement": "CLSI MIC Cutoffs for (Urine) AST Determination R", "result": "≥32/16"}, {"measurement": "CLSI MIC Cutoffs for (Urine) AST Determination S", "result": "≤8/4"}]}
{"compound": "Gentamicin", "values": [{"measurement": "CLSI MIC Cutoffs for (Urine) AST Determination I", "result": 8, "unit": "µg/mL"}, {"measurement": "CLSI MIC Cutoffs for (Urine) AST Determination R", "result": "≥16", "unit": "µg/mL"}, {"measurement": "CLSI MIC Cutoffs for (Urine) AST Determination S", "result": "≤4", "unit": "µg/mL"}]}
{"compound": "Piperacillin/Tazobactam [Pip/Tazo]", "values": [{"measurement": "CLSI MIC Cutoffs for (Urine) AST Determination R", "result": "≥128/4"}, {"measurement": "CLSI MIC Cutoffs for (Urine) AST Determination S", "result": "≤16/4"}]}
{"compound": "Trimethoprim/Sulfamethoxazole [TMP/SMX]", "values": [{"measurement": "CLSI MIC Cutoffs for (Urine) AST Determination R", "result": "≥4/76"}, {"measurement": "CLSI MIC Cutoffs for (Urine) AST Determination S", "result": "≤2/38"}]}
